Assay results from article PMC9701179, “New tricyclic systems as photosensitizers towards triple negative breast cancer cells” (Archives of Pharmacal Research, 2022).
Read-outs that look alike come from different tables or passages of the source.

Columns and labels:
MDA-MB-231 cells [1] = experiment: MTT cytotoxicity/photocytotoxicity test on human TNBC MDA-MB-231 cells; type: cell-based; details: for IC50: Homo sapiens
Method: The irradiation device used for the irradiation of cell cultures during the assays was a black box equipped with two Philips UVA lamps with an irradiance of 17 mW cm^−2 and a centered emission peak at 365 nm; UVA irradiance was measured using a Waldmann Variocontrol radiometer, equipped with a UVA sensor. The box was maintained at room temperature inside with a fan and the multiwell plates were placed onto a water-refrigerated metal block.
Human triple negative (TNBC) breast MDA-MB-231 carcinoma cells were obtained from American Type Culture Collection (ATCC, Rockville, MD, USA). Human embryonic kidney HEK293 cells were obtained from the European Collection of Cell Cultures (ECACC, Salisbury, UK). Cell lines were maintained in the logarithmic phase at 37 °C in a 5% CO2 atmosphere using the following culture media containing 10% foetal calf serum (Euroclone, Milan, Italy), antibiotics (50 units/mL penicillin and 50 μg/mL streptomycin) and 2 mM l-glutamine: (i) RPMI-1640 medium (Euroclone, Milan, Italy) for MDA-MB-231 4 cells; (ii) DMEM (Euroclone, Milan, Italy) for HEK293 cells.
Cells (5–8 × 10^3 cells/well, dependent upon the growth characteristics of the cell line) were seeded in 96-well microplates in growth medium (100 μL). After 24 h, the medium was removed and replaced with a fresh one containing the compound to be studied at the appropriate concentration. Triplicate cultures were established for each treatment. For photocytotoxicity studies, after 1 h of incubation the medium was replaced with PBS and cells were treated with 2.0 J cm^−2 of UVA light. After irradiation, PBS was replaced with complete proliferation media. For pre-irradiation studies, instead, compounds in PBS were irradiated with 2.0 J cm^−2 of UVA light and subsequently cells were treated with pre-irradiated solutions. Following 24 h, each well was treated with 10 μL of a 5 mg/mL MTT saline solution, and following 5 h of incubation, 100 μL of a sodium dodecyl sulfate (SDS) solution in HCl 0.01 M were added. After an overnight incubation, cell growth inhibition was detected by measuring the absorbance of each well at 570 nm using a Bio-Rad 680 microplate reader. Mean absorbance for each drug dose was expressed as a percentage of the control untreated well absorbance and plotted against drug concentration. IC50 values, the drug concentrations that reduce the mean absorbance at 570 nm to 50% of those in the untreated control wells, were calculated by the four-parameter logistic (4-PL) model. Evaluation was based on means from at least four independent experiments.
The new synthetized pyrrolo[1,2-h][1,7]naphthyridinones 7 and pyrido[2,3-c]pyrrolo[1,2-a]azepinones 8 were screened for their cytotoxicity (in the dark) and photocitotoxicity (upon UVA light irradiation at 2.0 J/cm^2) profile on human TNBC cells, MDA-MB-231. The cytotoxicity/photocytotoxicity parameters, expressed in terms of IC50 values obtained by MTT test after 24 h of drug-exposure, are listed in Table 2.

MDA-MB-231 cells [2] = experiment: Intracellular ROS production (CM-H2DCFDA) under UVA; type: cell-based, human; details: MDA-MB-231, 25 µM, 90 min, UVA 2.0 J/cm^2; antimycin 3 µM positive control
Method: The production of ROS was measured in MDA-MB-231 cells (10^4 per well) grown for 24 h in a 96-well plate in RPMI medium without phenol red (Merk, Germany). Cells were then washed with PBS and loaded with 10 μM 5-(and-6)-chloromethyl-2′,7′-dichlorodihydrofluorescein diacetate acetyl ester (CM–H2DCFDA) (Molecular Probes-Invitrogen, Eugene, OR) for 45 min, in the dark. Afterwards, cells were washed with PBS and incubated with tested compounds (25 µM) for 90 min and after that exposed to UVA light (2.0 J/cm^2). Fluorescence increase was estimated utilizing the wavelengths of 485 nm (excitation) and 527 nm (emission) in a VICTOR X3 (PerkinElmer, USA) plate reader. Antimycin (3 μM, Merk), a potent inhibitor of Complex III in the electron transport chain, was used as positive control.
ROS production under light (UVA, 2.0 J/cm^2) was evaluated in MDA-MB-231 cell samples treated with increasing concentrations of tested compounds or antimycin, a potent inhibitor of Complex III of mitochondria electron chain, used as a positive control under the same experimental conditions (Fig. 4).
Fig. 4 Cellular ROS production (A) and total thiol redox state (B). A Effect of UVA activated tested compounds (25 µM) or antimycin (3 µM) on hydrogen peroxide formation in MDA-MB-231 cancer cells. B Sulfhydryl content in MDA-MB-231 cancer cells incubated for 24 h with UVA activated tested compounds. The sulfhydryl group amount was determined by the DTNB assay. Error bars indicate S.D

MDA-MB-231 cells [3] = experiment: Mitochondrial membrane potential (Mito-ID kit); type: cell-based, human; details: MDA-MB-231, UVA 2.0 J/cm^2; CCCP positive control
Method: The ΔΨ was assayed using the Mito-ID® Membrane Potential Kit according to the manufacturer’s instructions (Enzo Life Sciences, Farmingdale, NY, USA) as previously described. Briefly, MDA-MB-231 cells (8 × 10^3 per well) were seeded in 96-well plates; after 24 h, cells were washed with PBS and loaded with Mito-ID Detection Reagent for 30 min at 37 °C in the dark. Afterwards, cells were incubated with increasing concentrations of tested compounds for 90 min and after that exposed to UVA light (2.0 J/cm^2). CCCP (Carbonyl cyanide 3-chlorophenyl-hydrazone) was used as positive control. Fluorescence intensity was estimated using a VICTOR X3 (PerkinElmer, USA) plate reader at 490 (excitation) and 590 nm (emission).
Induction of ROS production can in turn prompt the collapse of mitochondrial membrane potential as well as loss of mitochondrial integrity and functioning. […] MDA-MB-231 TNBC cells were treated with tested compounds upon UVA irradiation and the percentage of cells with hypopolarized mitochondrial membrane potential was determined fluorometrically by means of the Mito-ID® Membrane Potential Kit.
Fig. 5 Effects on mitochondrial membrane potential (A) and cell death induction (B) in human breast MDA-MB-231 cancer cells. A Cells were treated with 7h and 8e and stained with TMRM (10 nM). Fluorescence was estimated at 490 nm (excitation) and 590 nm (emission). Data are the means of five independent experiments. Error bars indicate S.D. * P < 0.05. B Cells were treated with concentrations of 7h and 8e equal to IC50 for 24 h and stained with the fluorescent dyes Hoechst 33342 and PI

[4] = MDA-MB-231, in the dark, 1 h pre-treatment, recovered for total 24 h, read-out: Dark IC50 (µM) ± S.D
[5] = light or radiation study, MDA-MB-231, 1 h pre-treatment, UVA 2.0 J/cm^2, recovered for total 24 h, read-out: UVA (2.0 J/cm^2) IC50 (µM) ± S.D

melting point [°C] | SMILES | IC50 (MDA-MB-231 cells [1]; [4]) [µM] | IC50 (MDA-MB-231 cells [1]; [5]) [µM] | Cellular ROS production (hydrogen peroxide formation) (MDA-MB-231 cells [2]) | Cells with depolarized mitochondria (mitochondrial membrane potential) (MDA-MB-231 cells [3]) | UVA (2.0 J/cm^2) IC50 (µM) ± S.D (MDA-MB-231 cells [1]; MDA-MB-231, 1 h pre-treatment, UVA 2.0 J/cm^2, recovered for total 24 h)
 | CC(C)OC(=O)c1ccc2n1CCCc1cc(S(=O)(=O)c3ccccc3)c(=O)[nH]c1-2 [Compound 8b, Propan-2-yl 3-(benzenesulfonyl)-2-oxo-1,5,6,7-tetrahydro-2H-pyrido[2,3-c]pyrrolo[1,2-a]azepine-9-carboxylate] | > 50 | > 50 |  |  | 
 | COc1nc2c(cc1S(=O)(=O)c1ccccc1)CCn1c(C(=O)OC(C)C)ccc1-2 [Compound 7i, Propan-2-yl 3-(benzenesulfonyl)-2-methoxy-5,6-dihydropyrrolo[1,2-h][1,7]naphthyridine-8-carboxylate] | > 50 | 7.9 ± 0.5 |  |  | 
 | CCOC(=O)c1ccc2n1CCCc1cc(S(=O)(=O)c3ccccc3)c(=O)n(C)c1-2 [Compound 8c, Ethyl 3-(benzenesulfonyl)-1-methyl-2-oxo-1,5,6,7-tetrahydro-2H-pyrido[2,3-c]pyrrolo[1,2-a]azepine-9-carboxylate] | > 50 | 24.9 ± 2.8 |  |  | 
196 to 197 | CCOC(=O)C1(Br)C=CC2=C3NC(=O)C(S(=O)(=O)c4ccccc4)C=C3CCN21 (stereo not drawn) [Compound 7j, Ethyl 3-(benzenesulfonyl)-8-bromo-2-oxo-1,2,5,6-tetrahydropyrrolo[1,2-h][1,7]naphthyridine-8-carboxylate] |  |  |  |  | 
 | CCOC(=O)c1ccc2n1CCc1cc(S(=O)(=O)c3ccccc3)c(=O)[nH]c1-2 [Compound 7b, Ethyl 3-(benzenesulfonyl)-2-oxo-1,2,5,6-tetrahydropyrrolo[1,2-h][1,7]naphthyridine-8-carboxylate] | > 50 | 21 ± 0.4 |  |  | 
317 to 318 | O=c1[nH]c2c(cc1S(=O)(=O)c1ccccc1)CCn1cccc1-2 [Compound 7a, 3-(benzenesulfonyl)-5,6-dihydropyrrolo[1,2-h][1,7]naphthyridin-2(1H)-one] | > 50 | > 50 |  |  | 
 | CCOC(=O)c1ccc2n1CCc1cc(S(=O)(=O)c3ccccc3)c(=O)n(C)c1-2 [Compound 7e, Ethyl 3-(benzenesulfonyl)-1-methyl-2-oxo-1,2,5,6-tetrahydropyrrolo[1,2-h][1,7]naphthyridine-8-carboxylate] | > 50 | > 50 | hardly effective in inducing any ROS basal level production increase | did not induce a substantial change in mitochondrial membrane potential | 
174 to 175 | CC(C)OC(=O)C1(Br)C=CC2=C3NC(=O)C(S(=O)(=O)c4ccccc4)C=C3CCN21 (stereo not drawn) [Compound 7k, Propan-2-yl 3-(benzenesulfonyl)-8-bromo-2-oxo-1,2,5,6-tetrahydropyrrolo[1,2-h][1,7]naphthyridine-8-carboxylate] |  |  |  |  | 
210 to 211 | COc1nc2c(cc1S(=O)(=O)c1ccccc1)CCn1cccc1-2 [Compound 7g, 2-methoxy-3-(phenylsulfonyl)-5,6-dihydropyrrolo[1,2-h][1,7]naphthyridine] | > 50 | > 50 |  |  | 
 | CCOC(=O)c1ccc2n1CCCc1cc(S(=O)(=O)c3ccccc3)c(=O)[nH]c1-2 [Compound 8a, Ethyl 3-(benzenesulfonyl)-2-oxo-1,5,6,7-tetrahydro-2H-pyrido[2,3-c]pyrrolo[1,2-a]azepine-9-carboxylate] | > 50 | > 50 |  |  | 
 | COc1nc2c(cc1S(=O)(=O)c1ccccc1)CCCn1c(C(=O)OC(C)C)ccc1-2 [Compound 8f, Propan-2-yl 3-(benzenesulfonyl)-2-methoxy-6,7-dihydro-5H-pyrido[2,3-c]pyrrolo[1,2-a]azepine-9-carboxylate] | > 50 | 23.7 ± 1.5 |  |  | 
268 to 269 | Cn1c2c(cc(S(=O)(=O)c3ccccc3)c1=O)CCn1cccc1-2 [Compound 7d, 1-Methyl-3-(benzenesulfonyl)-5,6-dihydropyrrolo[1,2-h][1,7]naphthyridin-2(1H)-one] | > 50 | > 50 |  |  | 
172 to 173 | CCOC(=O)C1(Br)C=CC2=C3NC(=O)C(S(=O)(=O)c4ccccc4)C=C3CCCN21 (stereo not drawn) [Compound 8g, Ethyl 3-(benzenesulfonyl)-9-bromo-2-oxo-1,5,6,7-tetrahydro-2H-pyrido[2,3-c]pyrrolo[1,2-a]azepine-9-carboxylate] |  |  |  |  | 
167 to 168 | CC(C)OC(=O)C1(Br)C=CC2=C3NC(=O)C(S(=O)(=O)c4ccccc4)C=C3CCCN21 (stereo not drawn) [Compound 8h, Propan-2-yl 3-(benzenesulfonyl)-9-bromo-2-oxo-1,5,6,7-tetrahydro-2H-pyrido[2,3-c]pyrrolo[1,2-a]azepine-9-carboxylate] | > 50 | > 50 |  |  | completely ineffective in inhibiting cancer cell proliferation upon irradiation
 | CC(C)OC(=O)c1ccc2n1CCc1cc(S(=O)(=O)c3ccccc3)c(=O)n(C)c1-2 [Compound 7f, Propan-2-yl 3-(benzenesulfonyl)-1-methyl-2-oxo-1,2,5,6-tetrahydropyrrolo[1,2-h][1,7]naphthyridine-8-carboxylate] | > 50 | > 50 |  |  | 
 | CC(C)OC(=O)c1ccc2n1CCc1cc(S(=O)(=O)c3ccccc3)c(=O)[nH]c1-2 [Compound 7c, Propan-2-yl 3-(benzenesulfonyl)-2-oxo-1,2,5,6-tetrahydropyrrolo[1,2-h][1,7]naphthyridine-8-carboxylate] | > 50 | > 50 |  |  | 
